Values quoted from earlier work as cited in patent US20050065133A1, “Pharmaceutical compositions and methods comprising combinations of 2-alkylidene-19-nor-vitamin D derivatives and an EP2 or EP4 selective agonist” (Pfizer Inc, priority 2003, published 2005).
Read-outs that look alike come from different tables or passages of the source.

Assays:
[1] = test system: Male Holtzman strain weanling rats; conditions: single intrajugular injection, 650 pmol, 24 h later, mean ± SEM
Male weanling rats = conditions: for Serum Calcium (mg/100 ml): intraperitoneal, vitamin D-deficient low-calcium diet, 24 h after last dose, mean ± SEM

Row | SMILES | Serum Calcium (mg/100 ml) [1] [mg/100 ml] | Serum Calcium (mg/100 ml) (Male weanling rats; 130 pmol/day/7 days) | Serum Calcium (mg/100 ml) (Male weanling rats; 260 pmol/day/7 days) | inducing differentiation of HL-60 cells to the monocyte, in words (HL-60 cells) | selectivity for bone calcium mobilization over intestinal calcium transport, in words (Male weanling rats; chronic 7-day dosing) | bone calcium mobilization activity relative to 1,25-(OH)2D3 (Male weanling rats; chronic 7-day dosing, stated as likely) | bone calcium mobilization, in words (Male weanling rats; given for 7 days in a chronic mode, 130 and 260 pmol/day) | Serum Calcium (mg/100 ml) (Male weanling rats; 260 pmol/day/7 days, listed as 2-methylene-19-nor-20S-1,25-(OH)2D3)
1 | C=C1/C(=C\C=C2/CCC[C@]3(C)[C@@H]([C@H](C)CCCC(C)(C)O)CC[C@@H]23)C[C@@H](O)C[C@@H]1O [1,25-(OH)2D3, 1,25-dihydroxyvitamin D3, reference compound] | 5.7 ± 0.2 | 13.8 | 7.2 ± 0.5 |  |  |  |  | 
2 | C=C1[C@H](O)CC(=C/C=C2\CCC[C@]3(C)[C@@H]([C@H](C)CCCC(C)(C)O)CC[C@@H]23)C[C@H]1O [2-Methylene-19-Nor-1,25-(OH)2D3, 1α,25-dihydroxy-2-methylene-19-nor-vitamin D3] | 6.4 ± 0.1 | 9.9 ± 0.2 | 9.6 ± 0.3 | activity similar to 1,25-(OH)2D3 | selective for the mobilization of calcium from bone | 10-100 times | extremely strong | 
3 | C=C1[C@H](O)CC(=C/C=C2\CCC[C@]3(C)[C@@H]([C@@H](C)CCCC(C)(C)O)CC[C@@H]23)C[C@H]1O [2-Methylene-19-Nor-20S-1,25-(OH)2D3, (20S)-1α,25-dihydroxy-2-methylene-19-nor-vitamin D3] | 8.0 ± 0.1 | 13.8 ± 0.5 | 14.4 ± 0.6 | extremely potent | selective for the mobilization of calcium from bone |  |  | 14
